The values below come from ChEMBL document CHEMBL1130660, “Design and synthesis of a tetrahydropyran-based inhibitor of mammalian ribonucleotide reductase” (Bioorg Med Chem Lett, 1998).

What all share (type): protein-complex assay
Experiment [1] concerns the target T1, Ribonucleoside-diphosphate reductase RR1 (Homo sapiens) (UniProt P23921+Q7LG56+P31350). As to the kind of experiment: Mammalian ribonucleotide reductase (mRR) inhibitory activity at a dose of 30 uM.
Experiment [2] has as its target T1, Ribonucleoside-diphosphate reductase RR1 (Homo sapiens). As to the kind of experiment: Mammalian ribonucleotide reductase (mRR) inhibitory activity at a dose of 0 uM.
Experiment [3] has the same target. As to the kind of experiment: Mammalian ribonucleotide reductase (mRR) inhibitory activity at a dose of 100 uM.
For experiment [4] the target is unchanged. Kind of experiment: Mammalian ribonucleotide reductase (mRR) inhibitory activity at a dose of 300 uM.
Experiment [5] shares this target. Kind of experiment: Mammalian ribonucleotide reductase (mRR) inhibitory activity at a dose of 1000 uM.
Experiment [6] shares this target. As to the kind of experiment: Mammalian ribonucleotide reductase (mRR) inhibitory activity at a dose of 500 uM.

For the compound `CC(=O)N[C@@H](Cc1ccccc1)C(=O)NC[C@@H]1O[C@H]([C@@H](C)C(=O)N[C@@H](CC(=O)O)C(=O)N[C@@H](Cc2ccccc2)C(=O)O)[C@@H](OCC(=O)O)C[C@H]1OCC(C)C`, the Residual RR activity in experiment [1] turned out to be 86%; in experiment [2], 100%; in experiment [3], 73%; in experiment [4], 64%; in experiment [5], 32%; in experiment [6], 48%.
